This is an account of results in US5883074A, “Potentiators of antibacterial agents” (priority 1995, dated 1999).

A value given as a limit tells only on which side of the number the result lay.

In one test the test system is MRSA strain Spain 195. Put plainly: Imipenem potentiation (MIC reduction), FIG. 4. The format is cell-based, Staphylococcus aureus. The following applies: compound at 10 μg/ml. The procedure: (§1) FIG. 4 is a table showing the imipenem potentiation effect of the second compound from FIG. 1 at 10 μg/ml in 5 MRSA strains (Col, Col 2278, sa 038, Spain 356, and Spain 195).

For a further test, the system named is MRSA strain Col 2278. Put plainly: Imipenem potentiation (MIC reduction), FIG. 4. It counts as cell-based, Staphylococcus aureus. The conditions noted are these: compound at 10 μg/ml. The procedure: as §1
Test [1] concerns MRSA strain Col. Description: Imipenem potentiation (MIC reduction), FIG. 4. It counts as cell-based, Staphylococcus aureus. The following applies: compound at 10 μg/ml. The procedure: as §1
In test [2] the test system is MRSA. Description: Potentiation screening assay: methicillin MIC reduction in MRSA. The following applies: 0, 5, and 10 μg/ml test compound. The format is cell-based, Staphylococcus aureus. The procedure:
After regrowth at 35° C. to an OD600 of 0.2-0.4 (1-2 hrs.), the cells are diluted 1/1000 in MHB. […] The plate is placed in a humidified 35° C. incubator for 5-24 hours, and cell growth or inhibition is read as turbidity (OD600). Two positive and one negative controls for growth are cells grown MHB, cells grown in MHB plus 20 μg/ml methicillin alone (without test compound), and uninoculated MHB respectively.
Compounds which meet the first two criteria for follow-up are evaluated in a standard microdilution assessment of the MIC with methicillin for MRSA. (see Lorian, Antibiotics in Laboratory Medicine, 3rd ed., pp. 72-75 (1991).) In order to be carried further, the MIC of methicillin preferably is reduced in the presence of the potentiator to at most twice the MIC of a susceptible strain for methicillin.
MICs for the compounds were determined in the presence of 0, 5, and 10 μg/ml of each compound. MRSA cells were grown in the presence of 0, 5, and 10 μg/ml test compound and concentrations of methicillin obtained from serial two-fold dilutions starting at 1024 μg/ml to 0.002 μg/ml (This range can be extended or refined as appropriate.) as follows: A fresh inoculum of MRSA cells was grown at 35° C. in Mueller-Hinton Broth (MHB) overnight and then diluted 1/50 in the same medium. After regrowth at 35° C. to an OD600 of 0.2-0.4 (1-2 hrs.), the cells were diluted 1/1000 in MHB. […] The plate was placed in a humidified 35° C. incubator for 24 hours, and cell growth or inhibition was read as turbidity (OD600).

In test [3] the test system is methicillin sensitive strain Col8A. Description: Methicillin MIC in methicillin sensitive strain with potentiator, FIG. 1. The conditions noted are these: potentiator at 0, 5, and 10 μg/ml. It counts as cell-based, Staphylococcus aureus.
For test [4], the system named is MRSA. Description: Specificity: intrinsic antibacterial activity without antibacterial agent. The following applies: test compound alone, without methicillin. The format is cell-based, Staphylococcus aureus. Here is the method: In order to ascertain that the test compound is not primarily responsible for inhibition of growth, MRSA cells are grown in the presence of 5 μg/ml test compound as follows: A fresh inoculum of MRSA cells is grown at 35° C. in Mueller-Hinton Broth (MHB) overnight and then diluted 1/50 in the same medium. After regrowth at 35° C. to an OD600 of 0.2-0.4 (1-2 hrs.), the cells are diluted 1/1000 in MHB. In a microtiter plate, 50 μl of this diluted culture is combined with 50 μl MHB containing 10 μg/ml test compound to give starting growth conditions of 5×10^5 cfu/ml in MHB, with 5 μg/ml test compound. The plate is placed in a humidified 35° C. incubator for 5-24 hours, and cell growth or inhibition is read as turbidity (OD600). To be carried forward to the next step of the potentiator screening assay, the test compound should have little or no intrinsic anti-staphylococcal activity (growth should be at least 75% of the growth of the positive control without methicillin, corrected for background), or that activity should be explicable without indicating the probability of human toxicity.

The subject of test [5] is MRSA strain Col. Description: Potentiating effect for 17 antimicrobial agents (MIC reduction), FIG. 2. The format is cell-based, Staphylococcus aureus. The procedure: FIG. 2 is a table showing the potentiating effect of one of the potentiating molecules from FIG. 1 for 17 antimicrobial agents in MRSA strain Col. The MIC is shown at 0, 5, and 10 μg/ml of potentiator.
(§2) MICs for the compounds were determined in the presence of 0, 5, and 10 μg/ml of each compound. MRSA cells were grown in the presence of 0, 5, and 10 μg/ml test compound and concentrations of methicillin obtained from serial two-fold dilutions starting at 1024 μg/ml to 0.002 μg/ml (This range can be extended or refined as appropriate.) as follows: A fresh inoculum of MRSA cells was grown at 35° C. in Mueller-Hinton Broth (MHB) overnight and then diluted 1/50 in the same medium. After regrowth at 35° C. to an OD600 of 0.2-0.4 (1-2 hrs.), the cells were diluted 1/1000 in MHB. In a microtiter plate, 50 μl of this diluted culture were combined with 50 μl MHB containing 0, 10, or 20 μg/ml test compound to give starting growth conditions of 5×10^5 cfu/ml in MHB, with 0, 5, or 10 μg/ml test compound. The plate was placed in a humidified 35° C. incubator for 24 hours, and cell growth or inhibition was read as turbidity (OD600).
The procedures used in Examples 1-3 to determine potentiation activity, and MIC reduction have been carried out using larixol acetate as the test compound and various antibacterial agents in place of methicillin. […]

The test system of test [6] is MRSA strain Col. Description: Methicillin potentiation (methicillin MIC reduction), FIG. 1. The format is cell-based, Staphylococcus aureus. The conditions noted are these: potentiator at 0, 5, and 10 μg/ml. Here is the method: (§3) The methicillin MIC at 0, 5, and 10 μg/ml of the potentiating molecules is shown. The structures of the two potentiating molecules are also shown. These potentiators were identified by screening by the methods of Examples 1 and 2, and the MIC reduction evaluated by the method of Example 3.
(§4) Compounds which meet the first two criteria for follow-up are evaluated in a standard microdilution assessment of the MIC with methicillin for MRSA. (see Lorian, Antibiotics in Laboratory Medicine, 3rd ed., pp. 72-75 (1991).) In order to be carried further, the MIC of methicillin preferably is reduced in the presence of the potentiator to at most twice the MIC of a susceptible strain for methicillin. (However, that level of reduction is not essential, since in particular circumstances a potentiator which provides a lesser reduction in the MIC can be useful.) In cases where susceptibility breakpoints are not available or the organism is not resistant to the drug whose action is being potentiated, the MIC preferably must be reduced by several twofold dilutions. We describe herein two compounds identified as having methicillin potentiating activity. These two potentiators meet the first three desired pharmacologic criteria as described above: (1) Potentiation of an anti-bacterial agent, (2) Little or no inhibition of the target organisms when used alone, and (3) Ability to reduce the MIC of an antibacterial agent to less than or equal to two times the MIC of an equivalent bacterial strain susceptible to that agent.
as §2

A further test relates to MRSA strain MRSA76. The description is as above. The format is cell-based, Staphylococcus aureus. The following applies: potentiator at 0, 5, and 10 μg/ml. The procedure:
as §3, §4, §2

The next test concerns Enterococcus faecium. Put plainly: Ampicillin potentiation screen. The format is cell-based. The following applies: highly ampicillin-resistant Enterococcus faecium, ampicillin alone. The procedure: The ampicillin potentiation screen is a high-throughput (96 well), whole cell assay in which compounds of unknown pharmacological activity are tested for their ability to induce an ampicillin-susceptible phenotype in highly ampicillin-resistant Enterococcus faecium (MIC of ampicillin>100μg/ml). These highly ampicillin-resistant bacteria are grown in the presence of ampicillin and various test compounds. The concentration of ampicillin used is well below the MIC for the resistant cells, but higher than the MIC for the isogeneic susceptible cells. Therefore, resistant cells can grow in the presence of the ampicillin without test compound, but the growth of susceptible cells is repressed. Growth is assessed after 5-24 hours by turbidity. Compounds are also tested for intrinsic antibacterial activity in the absence of ampicillin. Compounds which repress Enterococcus faecium growth when used together with ampicillin, which show no, or only a little, intrinsic antibacterial activity, are considered potentiators. […]
A fresh inoculum of E. faecium cells are grown at 35° C. in Brain-Heart Infusion Broth (BHI) overnight and then diluted 1/50 in the same medium. […] The plate is placed in a humidified 35° C. incubator for 24 hours, and cell growth or inhibition is read as turbidity (OD600). […]

The subject of a further test is MRSA Col cells. Description: Time-kill curve with methicillin. The format is cell-based, Staphylococcus aureus. Here is the method:
FIG. 3a is a graph of the number of viable MRSA Col cells/ml versus growth time in hours as determined by the method of Example 4. The graph presents the time kill curve for the first potentiating compound from FIG. 1 at 10 μg/ml with methicillin at 20 μg/ml, and curves for controls (drug-free, methicillin only, and potentiator only). Viable cell counts for all controls were greater than 5×10^8 cells/ml at 24 hours, while the viable cell count for methicillin plus potentiator was approximately 5×10^3 cells/ml after 24 hours.
A standard time-kill method (see Eliopolous & Moellering, Ch. 13 in Antibiotics in Laboratory Medicine, 3rd ed., Lorian ed., at pp. 441-444) is used to characterize whether the potentiator-drug combination is bacteriostatic or bactericidal. As controls, normal growth of the pathogen (without drug or potentiator) and the effects of the drug alone and the potentiator alone are assessed using the same inoculum culture as is used in the combination time-kill test. Either bacteriostatic or bactericidal effect should be confirmed for the potentiators to progress to further testing.

Regarding `C=CC(C)(O)CCC1C(=C)CC(OC(C)=O)C2C(C)(C)CCCC12C` (stereo not drawn) [larixol acetate], the “imipenem MIC reduction” value in the test with MRSA strain Spain 195, with MRSA strain Col 2278 and with MRSA strain Col [1] was “three orders of magnitude” throughout. Also, in the test with MRSA [2], the “effect on the MIC for methicillin” value is reported as “reduce the MIC for methicillin”. Moreover, the “reduction of methicillin MIC” value was “absence of a reduction in the MIC” in test [3], “reducing the methicillin MIC” in the test on MRSA strain Col [6] and “reducing the methicillin MIC” in the test on MRSA strain MRSA76. The intrinsic antimicrobial activity entry in the test with MRSA [4] was “not exhibiting intrinsic antimicrobial activity”. Besides, the “MIC reduction of antimicrobial agents” value in the test on MRSA strain Col [5] (potentiator at 0, 5, and 10 μg/ml, range of β-lactams, including methicillin, cefazolin, and imipenem) was “Significant MIC reduction”. For the same compound, the “MIC with potentiator relative to MIC of the antibacterial agent in the absence of the potentiator” value in the test with MRSA strain Col [5] (some β-lactams, larixol acetate as potentiator) is “less than 10^-3”.
With `CC1(C)S[C@@H]2[C@H](NC(=O)[C@H](N)c3ccccc3)C(=O)N2[C@H]1C(=O)O` [ampicillin], in the test on Enterococcus faecium, the MIC was above 100 µg/mL.
For the compound `COc1ccc2c(c1)CCC1C2CCC2CC(O)CCC21C` (stereo not drawn) [HMM-dodecahydrochrysene, 2-hydroxy-8-methoxy-4a-methyl-1,2,3,4,4a,4b,5,6,10b,11,12,12a-dodecahydrochrysene], the “effect on the MIC for methicillin” value in the test with MRSA [2] is recorded as “reduce the MIC for methicillin”. Also, the “reduction of methicillin MIC” value is given as “absence of a reduction in the MIC” in test [3], “reducing the methicillin MIC” in the test on MRSA strain Col [6] and “reducing the methicillin MIC” with MRSA strain MRSA76. In addition, the intrinsic antimicrobial activity result with MRSA [4] is on record as “not exhibiting intrinsic antimicrobial activity”. Besides, the “viable cell count, methicillin plus potentiator” value with MRSA Col cells (potentiator 10 μg/ml with methicillin 20 μg/ml, after 24 hours) was “approximately 5×10^3 cells/ml”. In the test with MRSA Col cells (potentiator only, at 24 hours), the “viable cell count, potentiator only (control)” value is listed as “greater than 5×10^8 cells/ml”.

The term MIC denotes the lowest concentration found to suppress growth.
